{"source": "patent US20220401619A1", "about": "“A COLLAGEN SCAFFOLD” (ROYAL COLLEGE OF SURGEONS IN IRELAND, priority 2019, published 2022)", "assay": "Antibiotic release profile from scaffolds over 60 days", "format": "physicochemical", "from_the_text": "As shown in FIG. 3(A), in the dual-layer scaffold structure incorporating crosslinked and directly incorporated antibiotic produced as described above, the porous scaffold structure necessary for efficient tissue regeneration was maintained. In addition, the porosity (>98%) and mean pore size, essential for optimal proliferation and differentiation of osteoblasts during bone regeneration, were not compromised after the loading of the drug into the collagen structure. Depending on the incorporation method, different release kinetics of the antibiotic from the materials were obtained. […] At day 10, approximately 90% of the teicoplanin was released when it was directly loaded into the slurry during the CHA scaffold fabrication."}
{"substance": "teicoplanin", "values": [{"measurement": "teicoplanin released", "setting": "day 10, directly loaded into the slurry during CHA scaffold fabrication", "result": "approximately 90%"}, {"measurement": "teicoplanin released", "setting": "day 60, chemically attached (crosslinked) to scaffold", "result": "approximately 11%"}]}
